Assay results published in PubChem BioAssay (NCI).
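Cultured in 96-well plates, cells were exposed to test compound for 48 hours across five concentrations. GI50 is the concentration that inhibits growth by half. TGI is the concentration that stops growth completely.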

Experiments:
Assay in all cases: NCI tumour cell line growth inhibition, 48 h
[1] = test system: U251 CNS
[2] = test system: ACHN renal
[3] = test system: SK-MEL-5 melanoma
[4] = test system: SK-MEL-2 melanoma
[5] = test system: UACC-62 melanoma
[6] = test system: RXF 393 renal
[7] = test system: HOP-92 NSCLC
[8] = test system: SK-OV-3 ovarian
[9] = test system: RPMI-8226 leukemia
[10] = test system: UACC-257 melanoma

SMILES | TGI [1] [µM] | TGI [2] [µM] | TGI [3] [µM] | TGI [4] [µM] | TGI [5] [µM] | TGI [6] [µM] | TGI [7] [µM] | TGI [8] [µM] | TGI [9] [µM] | TGI [10] [µM] | GI50 [2] [µM] | GI50 [7] [µM] | GI50 [3] [µM] | GI50 [6] [µM] | GI50 [9] [µM] | GI50 [1] [µM] | GI50 [8] [µM] | GI50 [5] [µM] | GI50 [10] [µM] | GI50 [4] [µM]
CCCC(=O)c1c(NOC2OC(COC(C)=O)C(OC(C)=O)C(OC(C)=O)C2OC(C)=O)nc(OC)n(C)c1=O (centres undefined) | > 100 | > 100 | > 100 | > 100 | > 100 | > 100 |  |  |  |  |  |  |  |  |  |  |  |  |  | 
CCOc1ccccc1NC(=O)/C=C1\NC(=O)CS1 | > 100 |  | > 100 | > 100 | > 100 | > 100 | > 100 | > 100 | > 100 |  |  |  |  |  |  |  |  |  |  | 
CCN(CC)c1ccc(N=Nc2ccc(-c3nc4cccnc4o3)cc2)cc1 | > 100 | > 100 | > 100 | > 100 | > 100 | > 100 | > 100 |  | > 100 | > 100 |  |  |  |  |  |  |  |  |  | 
N#CC(C#N)=C(N)/C(C#N)=C\c1ccnc2ccccc12 | 43.1 | > 100 | 34 |  | 38.9 | 35.3 | 88 |  |  | 58.6 |  |  |  |  |  |  |  |  |  | 
C=CCn1c(C)nc2cc(Nc3nc(Nc4ccc5nc(C)n(CC=C)c5c4)c4ccccc4n3)ccc21 |  | 1.01 | 2.64 |  |  | 1.37 | 2.08 |  | 3.93 |  | 0.292 | 0.78 | 1.36 | 0.354 | 1.24 |  |  |  |  | 
COP1(=O)CC2C(Cl)(Cl)C2(C)C1 (centres undefined) | > 100 |  | > 100 |  | > 100 | > 100 |  | > 100 | > 100 |  |  |  |  |  |  |  |  |  |  | 
CC(=O)NC1=N/C(=C/c2cc([N+](=O)[O-])ccc2O)CN1C | > 100 | > 100 | > 100 | > 100 | > 100 |  | > 100 | > 100 |  | > 100 |  |  |  |  |  |  |  |  |  | 
C=CCNC(=S)N1CC(C)C(=O)Nc2ccccc21 (centres undefined) | > 100 | > 100 | > 100 | > 100 | > 100 | > 100 |  |  | > 100 |  |  |  |  |  |  |  |  |  |  | 
COc1cc2c(cc1OCc1ccccc1)N=C[C@@H]1C/C(=C/C(=O)NCCCN3C(=O)c4cccc5cccc(c45)C3=O)CN1C2=O | > 100 | > 61.4 | 3.33 |  | 2.55 | 0.651 | 4.76 | 33.5 | > 100 |  | 3.82 | 0.724 | 1.04 | 0.231 | 0.432 | 0.444 | 8.35 | 0.599 | 2.26 | 
Nc1c(C(=O)c2ccccc2)sc2nc(-c3cccs3)ccc12 | 14.1 | 13.3 | 3.13 | 17.8 | 10.4 | 1.63 | 7.31 | 18.4 | 17.6 |  | 0.863 | 0.486 | 0.292 | 0.317 | 0.513 | 0.281 | 0.389 | 0.0788 |  | 0.252
CN(C)c1ccc(/C=C2\Oc3cc(O)ccc3C2=O)cc1 | > 100 | > 100 | > 100 |  | > 100 | > 100 |  | > 100 | > 100 | > 100 |  |  |  |  |  |  |  |  |  | 
NC(=O)c1c[se]c(C2OC(CO)C(O)C2O)n1 (centres undefined) | > 100 | > 100 | > 100 | > 100 | > 100 |  | > 100 | > 100 | > 100 | > 100 |  |  |  |  |  |  |  |  |  | 
Cc1nc(N)sc1C(=O)/C=C/c1ccc(/C=C/C(=O)c2sc(NC(=O)CCCCCCCCC(=O)Nc3nc(C)c(C(=O)/C=C/c4ccc(/C=C/C(=O)c5sc(N)nc5C)cc4)s3)nc2C)cc1 | > 100 | > 100 |  | > 100 | 87.8 | > 100 |  | > 100 |  | > 100 |  |  |  |  |  |  |  |  |  | 
Oc1ccc(Br)cc1Sc1cc(Br)ccc1O | 18.4 | 20.8 | 11.6 | 17.7 |  |  |  | 29.7 | 15.6 | 17.7 | 6.4 |  | 3.16 |  | 3.18 | 4.42 | 14.9 |  | 5.2 | 5.62
COC(=O)c1c(-c2ccccc2)cc2c3cc(-c4ccccc4)c(C(=O)OC)n3c3ccccc3n12 | > 100 | > 100 | > 100 | > 100 | > 100 | > 94.7 |  | > 100 | > 100 | > 100 |  |  |  |  |  |  |  |  |  | 
CCOC(=O)CCC(=O)C1c2cccc(O)c2C(=O)c2c(O)cccc21 | 1.53 | 2.9 | 1.4 |  | 1.42 | 2.08 | 3.23 |  |  | 3.3 |  |  |  |  |  |  |  |  |  | 
COc1cc2nc(-c3ccc(C(F)(F)F)cc3)cc(OCCCN3CCOCC3)c2cc1OC | 14.3 | 18.2 | 0.997 | 13.1 | 3.9 | 3.65 | 4.66 | 22.4 |  | 5.68 | 2.01 | 1 | 0.288 | 0.706 |  | 1.4 | 5.04 | 0.628 | 1.67 | 3.32
C=CCCCCCCCCCCCC1CCC(CC)N1 (centres undefined) | 25.5 | 31.1 | 25.5 | 29.5 | 29.4 | 16.5 |  | 31.6 | 31.9 | 28 |  |  |  |  |  |  |  |  |  | 
CC[N+](CCCCCCCCCC[N+](CC)(c1ccccn1)c1ccccn1)(c1ccccn1)c1ccccn1 | 24 | 12.9 |  | 5.82 | 7.34 | 21.2 |  | 9.28 | 3.57 | 12.9 | 2.8 |  |  | 2.5 | 0.267 | 0.526 | 2.22 | 0.915 | 0.745 | 1.88
O=C(Nc1ccccc1)c1ccc(Cl)c([N+](=O)[O-])c1 | > 100 |  | 20 | 32.4 | 24.9 | 75.5 |  | 65 | 37.6 | 48.4 |  |  |  |  |  |  |  |  |  | 
CC(=O)N/C(=C\c1ccc(/C=C(\NC(C)=O)c2nc3ccc(Cl)cc3[nH]2)cc1)c1nc2ccccc2[nH]1 | > 100 | > 100 | > 100 | > 100 | > 100 |  | > 100 | > 100 | > 100 |  |  |  |  |  |  |  |  |  |  | 
